# Laboratory results published in patent US11292785B2, “Nitrogen-containing benzoheterocycle compound comprising carboxylic acid group, preparation method and use thereof” (Sichuan Kelun-Biotech Biopharmaceutical Co., Ltd., priority 2018, dated 2022).
# Read-outs that look alike come from different tables or passages of the source.
# Legend:
# CYP 3A4M = molecular target: T1, CYP 3A4M (Homo sapiens, UniProt P08684); test: CYP 3A4M inhibition test in human liver microsomes (probe midazolam); format: in vitro ADME; conditions: probe substrate midazolam, read-out: CYP 3A4M (μM), half inhibition concentration (IC50)
# T1 construct: from tissue; host or cells: human liver microsomes
# Procedure: Probe substrate: Midazolam, National Institute of Control of Pharmaceutical & Biological Products, 171265.
# Positive control: Ketoconazole, purchased from Dingdang Chemical, DTYC 0516-17.
# (§1) A probe substrate (50 μl), PBS (49 μl) and a test compound in different concentrations (0.05 μM, 0.15 μM, 0.5 μM, 1.5 μM, 5 μM, 15 μM, 50 μM) or a positive control (1 μl) were mixed with human liver microsomes (HLM, 50 μl) to give 150 μl of a mixed liquid, which was subjected to pre-incubation (37° C.) for 5 min, then added with NADPH (50 μl) and incubated for 30 min. The reaction was quenched by adding 200 μl of glacial acetonitrile. An appropriate volume of an internal standard substance was added, and after vortex treatment and centrifugation, the supernatant was obtained.
# (§2) The detection was performed by using LC-MS/MS. The mass spectrometer was API 5500, the liquid chromatograph was Waters ACQUITY UPLC I-CLASS system. The chromatographic column was Hypersil GOLD C18, 1.9 μm particle size, 50×2.1 mm; mobile phase A: water+0.1% formic acid, mobile phase B: acetonitrile; flow rate: 0.4 ml/min, column temperature: 40° C. The ion source as used was ESI source positive ion mode, and the scanning mode was Multiple Reaction Monitoring (MRM).
# (§3) By using solvent group (DMSO) as negative control, the concentrations of the main metabolite converted from the probe substrate in the case of different concentrations of the test compound were measured, to determine the half inhibition concentration of the compound (IC50).
# CYP 3A4T = molecular target: T2, CYP 3A4T (Homo sapiens, UniProt P08684); test: CYP 3A4T inhibition test in human liver microsomes (probe testosterone); format: in vitro ADME; conditions: probe substrate testosterone, read-out: CYP 3A4T (μM), half inhibition concentration (IC50)
# T2 construct: from tissue; host or cells: human liver microsomes
# Procedure: Probe substrate: Testosterone, European Pharmacopoeia (EP) Reference Standard, Sigma-Aldrich, T0100000.
# Positive control: Ketoconazole, Dingdang Chemical, DTYC 0516-17.
# as §1, §2, §3
# [1] = Rat pharmacokinetic (PK) studies, plasma and liver; format: in vivo; conditions: male SD rats, p.o. 5 mg/kg; for AUC(0-t) / Cmax / bioavailability / half-life / Kp: rat, po; for Kp: male, SD, liver relative to plasma, 5 mg/kg
# Procedure: The test compound was administered intragastrically (p.o.) to male SD rats at a dose of 5 mg/kg. The solvent system was 0.5% MC during the p.o. administration. After p.o. administration, blood was collected for PK studies at 5 min, 15 min, 30 min, 1 h, 2 h, 4 h, 6 h, 8 h, and 24 h. After p.o. administration, liver tissues were collected at 15 min, 1 h, 4 h, 8 h and 24 h, and the liver tissue sample, after being subjected to protein precipitation treatment, was analyzed by a LC-MS/MS. The mass spectrometer was API 5500, and the liquid chromatograph was Waters ACQUITY I CLASS system: chromatographic column: Agela ASB C18 column (2.1 mm×50 mm, 1.9 μm); mobile phase A: water+0.1% formic acid, mobile phase B: acetonitrile; flow rate: 0.4 mL/min, column temperature: 40° C. The ion source as used was ESI source positive ion mode, and the scanning mode was Multiple Reaction Monitoring (MRM).
# CCR2 = molecular target: T3, CCR2 (Homo sapiens, UniProt P41597); test: Inhibition test on activity of CCR2 in cells (calcium fluorescence, MCP1 stimulation); format: cell-based; conditions: HEK293 cells stably expressing CCR2, ligand MCP1
# T3 construct: host or cells: HEK293
# Excerpt: (§4) HEK293 cells that stably express CCR2 and CCR5 receptor proteins were first labeled with calcium ion sensitive fluorescent probe and then stimulated with corresponding ligands (MCP1 and RANTES). After the stimulation, the receptors were activated to trigger the release of the calcium ions from endoplasmic reticulum to cytoplasm. And once the calcium ions were captured by the fluorescent probe, the fluorescent signal could be triggered. The inhibition of compounds on CCR2 and CCR5 can be evaluated by detecting the intensity of the fluorescent signal.
# (§5) To each well of the 384-well plates, 2×10^4 HEK293 cells were added and cultured overnight. After being labelled by fluorescent probe, MCP1 and RANTES in different concentrations were added, and the fluorescent signal was read. The fluorescence signal was plotted in relation to the ligand concentration, and according to the four-parameter model, IC50 values were calculated as the ligand concentrations of the CCR2 and CCR5 for the subsequent detection of the compounds.
# (§6) By referring to the above results, cells were incubated with the test compound in different concentrations (5000 nM, 1250 nM, 313 nM, 78 nM, 20 nM, 4.8828 nM, 1.2207 nM, 0.3052 nM, 0.0763 nM, and 0.0191 nM), and after MCP1 and RANTES were added thereto, the fluorescent signal was read. The inhibition activity of each concentration group was calculated, wherein the solvent group (not containing the compound) was as the negative control, and the Buffer group (not containing any ligand) was as the blank control: Relative inhibition activity percentage=1−(fluorescent signal of each concentration group-fluorescent signal of the blank group)/(fluorescent signal of the solvent group-fluorescent signal of the blank group)*100%.
# (§7) The inhibition activity percentage of each concentration group was plotted in relation to the concentration of the compound, and the curve was fitted according to the four-parameter model, IC50 values were calculated: y=min+(max−min)/(1+(x/IC50)^(−Hillslope))
# (§8) wherein y is the relative inhibition activity percentage; max, min are the maximum and minimum values of the fitted curve, respectively; x is the concentration of the compound, and Hillslope is the slope of the curve.
# CCR5 = molecular target: T4, CCR5 (Homo sapiens, UniProt P51681); test: Inhibition test on activity of CCR5 in cells (calcium fluorescence, RANTES stimulation); format: cell-based; conditions: HEK293 cells stably expressing CCR5, ligand RANTES
# T4 construct: host or cells: HEK293
# Excerpt: as §4, §5, §6, §7, §8
# CYP 1A2 = molecular target: T5, CYP 1A2 (Homo sapiens, UniProt P05177); test: CYP 1A2 inhibition test in human liver microsomes (probe phenacetin); format: in vitro ADME; conditions: probe substrate phenacetin, read-out: CYP 1A2 (μM), half inhibition concentration (IC50)
# T5 construct: from tissue; host or cells: human liver microsomes
# T5 sequence (P05177 1-516): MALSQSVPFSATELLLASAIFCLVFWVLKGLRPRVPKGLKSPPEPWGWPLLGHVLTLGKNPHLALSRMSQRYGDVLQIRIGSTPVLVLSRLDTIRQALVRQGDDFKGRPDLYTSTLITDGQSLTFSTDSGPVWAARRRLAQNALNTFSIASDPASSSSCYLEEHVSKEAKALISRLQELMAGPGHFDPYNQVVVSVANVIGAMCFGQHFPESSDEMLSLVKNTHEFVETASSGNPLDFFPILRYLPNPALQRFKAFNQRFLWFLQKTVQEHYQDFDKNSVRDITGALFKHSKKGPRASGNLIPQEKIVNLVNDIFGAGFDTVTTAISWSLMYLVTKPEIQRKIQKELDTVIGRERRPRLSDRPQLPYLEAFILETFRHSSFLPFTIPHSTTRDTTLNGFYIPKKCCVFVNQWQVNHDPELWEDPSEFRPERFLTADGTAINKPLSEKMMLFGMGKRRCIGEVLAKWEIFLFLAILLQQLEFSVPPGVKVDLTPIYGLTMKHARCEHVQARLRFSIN
# Procedure: Probe substrate: Phenacetin, National Institute of Control of Pharmaceutical & Biological Products, 100095.
# Positive control: alpha-naphthoflavane, ACras, A0331533.
# as §1, §2, §3
# CYP 2D6 = molecular target: T6, CYP 2D6 (Homo sapiens, UniProt P10635); test: CYP 2D6 inhibition test in human liver microsomes (probe dextromethorphan); format: in vitro ADME; conditions: probe substrate dextromethorphan, read-out: CYP 2D6 (μM), half inhibition concentration (IC50)
# T6 construct: from tissue; host or cells: human liver microsomes
# Procedure: Probe substrate: Dextromethorpha, Beijing Jinbao, 100201.
# Positive control: Quinidine, Damas-bata, P1176507.
# as §1, §2, §3
# [2] = molecular target: T7, hERG potassium ion channels (Homo sapiens, UniProt Q12809); test: hERG inhibition test, manual patch clamp, HEK293 cells over-expressing hERG; format: cell-based; conditions: tested at 1 μM and 10 μM
# T7 construct: expressed in transfected cells; host or cells: HEK293
# Procedure: Different concentrations (1 μM and 10 μM) of the test compound and 30 μM positive control Quinidine were formulated. HEK293 cells over-expressing hERG potassium ion channels were cultured in 5% CO2 incubator at 37° C. When the density of the cells reaches 80% of the Petri dish, the cells was washed with phosphate buffer solution (PBS), followed by digestion with Trypsin/EDTA for 2-3 minutes. The digestion was terminated by adding cell culture medium, then the solution was transferred and centrifuged to remove the supernatant, and added with cell culture medium (DMEM, 15% fetal bovine serum and 1% 100×Penicillin-Streptomycin). After uniformly mixing, the cells were dripped onto a circular slide and cultured in a Petri dish to obtain the test cells.
# Channel current was recorded by applying electrophysiological manual patch clamp in a whole-cell recording mode: extracellular fluid was perfused until the current was stable, after the peak value of the tail current (control current value) was recorded, the extracellular fluid containing different concentrations of the test compound was perfused, continuously recording was conducted until the inhibition effect of the medicine on the hERG current reach stable, and the peak value of the tail current (current value after drug administration) was recorded.
# T7 sequence (Q12809 whole entry): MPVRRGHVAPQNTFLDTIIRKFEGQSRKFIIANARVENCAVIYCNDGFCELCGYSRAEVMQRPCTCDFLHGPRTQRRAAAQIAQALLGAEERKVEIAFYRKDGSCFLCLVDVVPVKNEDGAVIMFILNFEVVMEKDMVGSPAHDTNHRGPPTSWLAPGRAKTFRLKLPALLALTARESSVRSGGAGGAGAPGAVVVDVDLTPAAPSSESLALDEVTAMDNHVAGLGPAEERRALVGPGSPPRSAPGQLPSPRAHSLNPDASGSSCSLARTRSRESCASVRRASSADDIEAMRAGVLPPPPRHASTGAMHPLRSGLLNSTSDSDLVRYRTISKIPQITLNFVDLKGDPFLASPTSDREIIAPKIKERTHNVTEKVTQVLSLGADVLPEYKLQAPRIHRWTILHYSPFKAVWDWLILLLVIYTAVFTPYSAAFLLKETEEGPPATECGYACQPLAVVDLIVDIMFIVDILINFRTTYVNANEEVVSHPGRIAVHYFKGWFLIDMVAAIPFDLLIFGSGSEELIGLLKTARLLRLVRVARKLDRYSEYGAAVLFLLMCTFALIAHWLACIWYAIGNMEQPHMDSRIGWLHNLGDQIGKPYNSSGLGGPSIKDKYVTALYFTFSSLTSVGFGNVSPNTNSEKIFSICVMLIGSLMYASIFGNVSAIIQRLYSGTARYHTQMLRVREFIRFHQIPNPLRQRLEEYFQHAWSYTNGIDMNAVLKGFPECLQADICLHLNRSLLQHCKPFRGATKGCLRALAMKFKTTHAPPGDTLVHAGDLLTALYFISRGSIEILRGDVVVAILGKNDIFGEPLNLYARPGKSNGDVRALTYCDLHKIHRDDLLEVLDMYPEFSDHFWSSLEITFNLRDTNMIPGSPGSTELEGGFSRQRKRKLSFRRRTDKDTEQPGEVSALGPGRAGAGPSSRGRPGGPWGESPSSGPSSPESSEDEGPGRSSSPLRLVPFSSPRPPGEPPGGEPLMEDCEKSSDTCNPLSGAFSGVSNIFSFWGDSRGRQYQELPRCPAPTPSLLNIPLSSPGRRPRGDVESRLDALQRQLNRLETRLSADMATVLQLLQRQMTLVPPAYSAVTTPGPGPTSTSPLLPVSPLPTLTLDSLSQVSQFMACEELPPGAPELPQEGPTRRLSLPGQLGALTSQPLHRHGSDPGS
# T3 sequence (P41597 whole entry): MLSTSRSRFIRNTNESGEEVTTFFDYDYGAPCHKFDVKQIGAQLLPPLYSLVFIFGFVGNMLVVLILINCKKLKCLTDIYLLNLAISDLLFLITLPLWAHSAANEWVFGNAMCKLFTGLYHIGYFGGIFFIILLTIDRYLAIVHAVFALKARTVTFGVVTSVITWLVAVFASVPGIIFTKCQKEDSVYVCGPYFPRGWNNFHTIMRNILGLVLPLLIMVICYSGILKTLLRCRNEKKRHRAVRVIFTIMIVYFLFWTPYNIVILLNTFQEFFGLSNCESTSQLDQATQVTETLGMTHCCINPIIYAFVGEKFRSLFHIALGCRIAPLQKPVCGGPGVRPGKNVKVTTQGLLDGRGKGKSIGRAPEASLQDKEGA
# T4 sequence (P51681 whole entry): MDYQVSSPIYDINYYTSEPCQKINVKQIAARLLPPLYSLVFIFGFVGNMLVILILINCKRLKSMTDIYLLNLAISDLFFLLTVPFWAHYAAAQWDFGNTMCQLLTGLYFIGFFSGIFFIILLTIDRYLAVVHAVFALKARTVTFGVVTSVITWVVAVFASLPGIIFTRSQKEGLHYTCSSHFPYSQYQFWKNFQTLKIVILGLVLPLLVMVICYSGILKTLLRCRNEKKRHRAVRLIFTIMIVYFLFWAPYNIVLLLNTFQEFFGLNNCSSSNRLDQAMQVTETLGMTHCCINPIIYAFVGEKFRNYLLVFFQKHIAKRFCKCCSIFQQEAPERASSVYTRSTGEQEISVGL
# T1 sequence (P08684 whole entry): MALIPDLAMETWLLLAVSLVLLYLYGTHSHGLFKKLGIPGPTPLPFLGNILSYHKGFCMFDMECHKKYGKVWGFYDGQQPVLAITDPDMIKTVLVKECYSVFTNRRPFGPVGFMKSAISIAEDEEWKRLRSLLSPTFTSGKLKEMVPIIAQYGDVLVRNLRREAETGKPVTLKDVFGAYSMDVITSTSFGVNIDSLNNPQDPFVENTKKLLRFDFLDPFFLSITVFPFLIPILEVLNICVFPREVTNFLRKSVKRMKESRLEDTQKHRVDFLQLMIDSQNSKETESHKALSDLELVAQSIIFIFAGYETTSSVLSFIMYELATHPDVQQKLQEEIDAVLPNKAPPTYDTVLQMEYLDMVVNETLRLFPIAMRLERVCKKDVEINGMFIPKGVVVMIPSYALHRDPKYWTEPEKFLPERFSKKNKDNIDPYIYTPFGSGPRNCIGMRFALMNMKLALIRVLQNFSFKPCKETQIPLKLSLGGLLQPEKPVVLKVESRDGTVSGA
# T2 sequence (P08684 whole entry): as above
# T6 sequence (P10635 whole entry): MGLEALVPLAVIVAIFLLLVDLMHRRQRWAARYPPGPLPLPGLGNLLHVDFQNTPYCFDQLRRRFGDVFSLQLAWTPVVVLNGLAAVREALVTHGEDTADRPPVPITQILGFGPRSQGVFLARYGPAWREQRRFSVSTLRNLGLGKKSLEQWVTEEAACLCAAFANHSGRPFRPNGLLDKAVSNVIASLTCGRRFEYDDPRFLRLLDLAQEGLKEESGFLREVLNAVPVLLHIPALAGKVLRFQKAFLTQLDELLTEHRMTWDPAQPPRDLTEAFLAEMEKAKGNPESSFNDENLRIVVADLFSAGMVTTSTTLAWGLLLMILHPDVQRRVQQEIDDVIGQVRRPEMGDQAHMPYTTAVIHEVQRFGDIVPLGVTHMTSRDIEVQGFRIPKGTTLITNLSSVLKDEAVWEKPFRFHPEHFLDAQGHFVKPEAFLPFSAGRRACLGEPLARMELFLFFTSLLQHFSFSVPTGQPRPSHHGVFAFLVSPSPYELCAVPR
structure (smiles),measurement,setting,value
"CCCCOCCOc1ccc(-c2ccc3c(c2)/C=C(/C(=O)Nc2ccc([S@@+]([O-])Cc4cncn4CCC)cc2)CCCN3CC(C)C)cc1 [Cenicriviroc, reference compound]",IC50,CYP 3A4M,3.43 µM
same,IC50,CYP 3A4T,12.7 µM
same,AUClast,[1]; liver,6033 ± 2193 ng·h/g
same,AUC(0-t),[1]; blood plasma,6330 ± 3440 ng·h/mL
same,Cmax,[1]; blood plasma,746 ± 428 ng/mL
same,bioavailability,[1]; blood plasma,10.8 ± 3.5%
same,half-life,[1]; blood plasma,4.33 ± 0.87 h
same,Cmax,[1]; liver,688 ± 229 ng/g
same,half-life,[1]; liver,3.93 ± 1.88 h
"CCCCOCCOc1ccc(-c2ccc3c(c2)/C=C(/C(=O)Nc2ccc([S@@+]([O-])Cc4cncn4CCC)cc2)CCCN3CC(C)(C)C(=O)O)cc1 [Compound 1, (S,E)-3-(8-(4-(2-butoxyethoxy)phenyl)-5-((4-(((1-propyl-1H-imidazol-5-yl)methyl)sulfinyl)phenyl)carbamoyl)-3,4-dihydrobenzo[b]azacyclooctatetraen-1(2H)-yl)-2,2-dimethylpropanoic acid]",IC50,CCR2,0.74 nM
same,IC50,CCR5,0.33 nM
same,IC50,CYP 1A2,> 10 µM
same,IC50,CYP 2D6,> 10 µM
"CCCCOCCOc1ccc(-c2ccc3c(c2)/C=C(/C(=O)Nc2ccc([S+]([O-])Cc4c(C)ncn4CCC)cc2)CCCN3CC(C)(C)C(=O)O)cc1 (stereo not shown) [Compound 2, (E)-3-(8-(4-(2-butoxyethoxy)phenyl)-5-((4-(((4-methyl-1-propyl-1H-imidazol-5-yl)methyl)sulfinyl)phenyl)carbamoyl)-3,4-dihydrobenzo[b]azacyclooctatetraen-1(2H)-yl)-2,2-dimethylpropanoic acid]",IC50,CCR2,6.38 nM
same,IC50,CCR5,3.18 nM
same,IC50,CYP 1A2,> 10 µM
same,IC50,CYP 2D6,> 10 µM
same,IC50,CYP 3A4M,27.8 µM
same,IC50,CYP 3A4T,62.2 µM
same,IC50,[2],> 10 µM
CCCCOCCOc1ccc(-c2ccc3c(c2)/C=C(/C(=O)Nc2ccc([S@@+]([O-])Cc4c(C)ncn4CCC)cc2)CCCN3CC(C)(C)C(=O)O)cc1 [Compound 3],IC50,CCR2,0.81 nM
same,IC50,CCR5,1.48 nM
same,IC50,CYP 1A2,> 10 µM
same,IC50,CYP 2D6,> 10 µM
same,IC50,CYP 3A4M,13.3 µM
same,IC50,CYP 3A4T,32.3 µM
same,IC50,[2],> 10 µM
same,AUClast,[1]; liver,386938 ± 30242 ng·h/g
same,Kp,"[1]; AUClast liver vs plasma, read-out: exposure in the liver relative to that in the plasma",~2340
same,Kp,"[1]; Cmax liver vs plasma, read-out: drug concentration in the liver relative to that in the plasma",~530
same,AUC(0-t),[1]; blood plasma,165 ± 36 ng·h/mL
same,Cmax,[1]; blood plasma,49.7 ± 10.6 ng/mL
same,bioavailability,[1]; blood plasma,20.9 ± 4.5%
same,half-life,[1]; blood plasma,1.93 ± 0.37 h
same,Cmax,[1]; liver,26600 ± 200 ng/g
same,half-life,[1]; liver,7.2 ± 0.5 h
CCCCOCCOc1ccc(-c2ccc3c(c2)/C=C(/C(=O)Nc2ccc([S@+]([O-])Cc4c(C)ncn4CCC)cc2)CCCN3CC(C)(C)C(=O)O)cc1 [Compound 4],IC50,CCR2,6.12 nM
same,IC50,CCR5,2.82 nM
same,IC50,CYP 1A2,> 10 µM
same,IC50,CYP 2D6,> 10 µM
same,IC50,CYP 3A4M,15.3 µM
same,IC50,CYP 3A4T,48.3 µM
same,IC50,[2],> 10 µM
